From patent US20050049245A1, “Heteroaryl-ethanolamine derivatives as antiviral agents” (priority 2002, published 2005)
Like-named read-outs stand apart in the source and are kept apart here.

Key:
HCMV polymerase = molecular target: T1, HCMV polymerase (Human cytomegalovirus, UniProt P08546); assay: HCMV polymerase scintillation proximity assay (SPA); type: biochemical
T1 construct: made in house; host or cells: recombinant baculovirus-infected SF-9 cells
Method: The HCMV polymerase assay is performed using a scintillation proximity assay (SPA) as described in several references, such as N. D. Cook, et al., Pharmaceutical Manufacturing International, pages 49-53 (1992); KY Takeuchi, Laboratory Practice, September issue (1992); U.S. Pat. No. 4,568,649 (1986); which are incorporated by reference herein. Reactions are performed in 96-well plates. The assay is conducted in 100 yl volume with 5.4 mM HEPES (pH 7.5), 11.7 mM KCl, 4.5 mM MgCl2, 0.36 mg/ml BSA, and 90 nM ^3H-dTTP. Assays are run with and without CHAPS, (3-[(3-Cholamidopropyl)-dimethylammonio]-1-propane-sulfonate) at a final concentration of 2 mM. HCMV polymerase is diluted in enzyme dilution buffer containing 50% glycerol, 250 mM NaCl, 10 mM HEPES (pH 7.5), 100 μg/ml BSA, and 0.01% sodium azide. The HCMV polymerase, which is expressed in recombinant baculovirus-infected SF-9 cells and purified according to literature procedures, is added at 10% (or 10 μl) of the final reaction volume, i.e., 100 μl. Compounds are diluted in 50% DMSO and 10 μl are added to each well. Control wells contain an equivalent concentration of DMSO. Unless noted otherwise, reactions are initiated via the addition of 6 nM biotinylated poly(dA)-oligo(dT) template/primer to reaction mixtures containing the enzyme, substrate, and compounds of interest. Plates are incubated in a 25° C. or 37° C. H2O bath and terminated via the addition of 40 μl/reaction of 0.5 M EDTA (pH 8) per well. Reactions are terminated within the time-frame during which substrate incorporation is linear and varied depending upon the enzyme and conditions used, i.e., 30 min. for HCMV polymerase. Ten (10) μl of streptavidin-SPA beads (20 mg/ml in PBS/10% glycerol) are added following termination of the reaction. Plates are incubated 10 min. at 37° C., then equilibrated to room temperature, and counted on a Packard Topcount. Linear regressions are performed and IC50's are calculated using computer software.
A modified version of the above HCMV polymerase assay is performed as described above, but with the following changes: Compounds are diluted in 100% DMSO until final dilution into assay buffer. In the previous assay, compounds are diluted in 50% DMSO. 4.5 mM Dithiothreitol (DTT) is added to the polymerase buffer.
All results are listed as Polymerase IC50 ([…]) values. In Table 1, the term “n.d.” refers to activity data not determined.

HSV polymerase = HSV polymerase (Human herpesvirus 1, UniProt P04293); assay: HSV polymerase assay (Table 1); type: biochemical
VZV polymerase = VZV polymerase (Varicella-zoster virus, UniProt P09252); assay: VZV polymerase assay (Table 1); type: biochemical
[1] = HCMV polymerase, SPA, read-out: Polymerase IC50 HCMV
[2] = HSV polymerase, read-out: Polymerase IC50 HSV
[3] = VZV polymerase, read-out: Polymerase IC50 VZV

Chain of HSV polymerase (P04293 whole entry): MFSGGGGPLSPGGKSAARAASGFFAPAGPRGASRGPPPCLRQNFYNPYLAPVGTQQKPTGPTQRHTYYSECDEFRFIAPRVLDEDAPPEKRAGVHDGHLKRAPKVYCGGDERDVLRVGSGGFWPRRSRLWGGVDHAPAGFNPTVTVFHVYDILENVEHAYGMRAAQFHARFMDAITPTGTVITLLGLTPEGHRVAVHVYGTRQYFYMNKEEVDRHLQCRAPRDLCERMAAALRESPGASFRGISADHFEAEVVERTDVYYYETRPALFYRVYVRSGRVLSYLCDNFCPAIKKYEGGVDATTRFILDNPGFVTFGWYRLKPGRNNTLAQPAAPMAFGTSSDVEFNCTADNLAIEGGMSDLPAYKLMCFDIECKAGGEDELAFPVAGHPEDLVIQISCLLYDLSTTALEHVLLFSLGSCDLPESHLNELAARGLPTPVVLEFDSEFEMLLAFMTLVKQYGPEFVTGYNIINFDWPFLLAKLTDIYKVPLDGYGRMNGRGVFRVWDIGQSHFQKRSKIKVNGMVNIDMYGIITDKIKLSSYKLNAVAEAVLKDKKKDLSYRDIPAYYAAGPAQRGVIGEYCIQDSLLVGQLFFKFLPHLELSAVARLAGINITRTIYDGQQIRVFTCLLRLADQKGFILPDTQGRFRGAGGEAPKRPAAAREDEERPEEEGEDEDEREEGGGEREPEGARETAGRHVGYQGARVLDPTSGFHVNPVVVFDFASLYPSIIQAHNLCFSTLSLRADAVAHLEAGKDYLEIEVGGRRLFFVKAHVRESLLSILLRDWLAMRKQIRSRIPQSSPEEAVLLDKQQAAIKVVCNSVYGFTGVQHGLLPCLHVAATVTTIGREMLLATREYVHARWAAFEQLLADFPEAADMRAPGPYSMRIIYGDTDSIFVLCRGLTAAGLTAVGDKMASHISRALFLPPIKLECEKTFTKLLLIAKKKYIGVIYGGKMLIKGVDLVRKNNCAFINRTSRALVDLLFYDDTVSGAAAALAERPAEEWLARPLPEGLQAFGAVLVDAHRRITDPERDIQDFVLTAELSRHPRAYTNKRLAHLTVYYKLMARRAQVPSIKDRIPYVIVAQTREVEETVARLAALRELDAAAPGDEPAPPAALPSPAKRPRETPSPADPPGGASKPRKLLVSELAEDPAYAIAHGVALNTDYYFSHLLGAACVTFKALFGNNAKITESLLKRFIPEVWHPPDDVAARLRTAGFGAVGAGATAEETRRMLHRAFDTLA
T1 sequence (P08546 whole entry): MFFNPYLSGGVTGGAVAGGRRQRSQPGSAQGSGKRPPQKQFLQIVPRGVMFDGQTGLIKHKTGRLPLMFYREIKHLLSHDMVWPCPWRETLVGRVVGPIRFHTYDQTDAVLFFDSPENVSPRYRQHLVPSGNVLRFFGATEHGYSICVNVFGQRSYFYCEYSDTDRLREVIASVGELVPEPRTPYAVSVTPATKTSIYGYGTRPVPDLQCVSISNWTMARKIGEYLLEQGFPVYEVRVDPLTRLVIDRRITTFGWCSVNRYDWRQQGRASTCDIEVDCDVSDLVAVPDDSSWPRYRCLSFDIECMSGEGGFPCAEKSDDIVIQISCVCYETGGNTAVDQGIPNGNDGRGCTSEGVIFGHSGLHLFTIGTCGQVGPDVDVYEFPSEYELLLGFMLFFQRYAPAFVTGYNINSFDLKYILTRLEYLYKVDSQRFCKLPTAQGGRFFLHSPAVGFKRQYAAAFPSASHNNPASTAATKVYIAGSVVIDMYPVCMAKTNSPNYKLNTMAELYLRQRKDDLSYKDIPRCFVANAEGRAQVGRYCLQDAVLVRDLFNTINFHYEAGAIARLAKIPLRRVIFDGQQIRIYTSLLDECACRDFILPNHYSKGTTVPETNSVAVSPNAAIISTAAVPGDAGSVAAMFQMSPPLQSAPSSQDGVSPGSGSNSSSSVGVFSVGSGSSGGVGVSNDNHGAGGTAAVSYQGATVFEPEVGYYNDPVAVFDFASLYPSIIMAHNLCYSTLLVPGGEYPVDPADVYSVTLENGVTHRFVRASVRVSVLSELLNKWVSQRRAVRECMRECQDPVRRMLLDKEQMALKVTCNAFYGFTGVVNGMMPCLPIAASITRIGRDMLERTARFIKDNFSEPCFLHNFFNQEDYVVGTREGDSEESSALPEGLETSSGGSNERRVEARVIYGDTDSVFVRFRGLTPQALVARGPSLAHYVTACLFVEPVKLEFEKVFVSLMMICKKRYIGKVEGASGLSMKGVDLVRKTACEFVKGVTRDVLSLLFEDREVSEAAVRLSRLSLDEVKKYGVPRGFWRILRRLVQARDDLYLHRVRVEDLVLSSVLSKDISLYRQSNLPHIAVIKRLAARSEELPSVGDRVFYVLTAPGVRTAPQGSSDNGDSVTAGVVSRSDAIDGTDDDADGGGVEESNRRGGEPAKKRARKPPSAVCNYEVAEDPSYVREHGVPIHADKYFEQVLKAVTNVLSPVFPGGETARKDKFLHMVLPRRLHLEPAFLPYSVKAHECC
Chain of VZV polymerase (P09252 whole entry): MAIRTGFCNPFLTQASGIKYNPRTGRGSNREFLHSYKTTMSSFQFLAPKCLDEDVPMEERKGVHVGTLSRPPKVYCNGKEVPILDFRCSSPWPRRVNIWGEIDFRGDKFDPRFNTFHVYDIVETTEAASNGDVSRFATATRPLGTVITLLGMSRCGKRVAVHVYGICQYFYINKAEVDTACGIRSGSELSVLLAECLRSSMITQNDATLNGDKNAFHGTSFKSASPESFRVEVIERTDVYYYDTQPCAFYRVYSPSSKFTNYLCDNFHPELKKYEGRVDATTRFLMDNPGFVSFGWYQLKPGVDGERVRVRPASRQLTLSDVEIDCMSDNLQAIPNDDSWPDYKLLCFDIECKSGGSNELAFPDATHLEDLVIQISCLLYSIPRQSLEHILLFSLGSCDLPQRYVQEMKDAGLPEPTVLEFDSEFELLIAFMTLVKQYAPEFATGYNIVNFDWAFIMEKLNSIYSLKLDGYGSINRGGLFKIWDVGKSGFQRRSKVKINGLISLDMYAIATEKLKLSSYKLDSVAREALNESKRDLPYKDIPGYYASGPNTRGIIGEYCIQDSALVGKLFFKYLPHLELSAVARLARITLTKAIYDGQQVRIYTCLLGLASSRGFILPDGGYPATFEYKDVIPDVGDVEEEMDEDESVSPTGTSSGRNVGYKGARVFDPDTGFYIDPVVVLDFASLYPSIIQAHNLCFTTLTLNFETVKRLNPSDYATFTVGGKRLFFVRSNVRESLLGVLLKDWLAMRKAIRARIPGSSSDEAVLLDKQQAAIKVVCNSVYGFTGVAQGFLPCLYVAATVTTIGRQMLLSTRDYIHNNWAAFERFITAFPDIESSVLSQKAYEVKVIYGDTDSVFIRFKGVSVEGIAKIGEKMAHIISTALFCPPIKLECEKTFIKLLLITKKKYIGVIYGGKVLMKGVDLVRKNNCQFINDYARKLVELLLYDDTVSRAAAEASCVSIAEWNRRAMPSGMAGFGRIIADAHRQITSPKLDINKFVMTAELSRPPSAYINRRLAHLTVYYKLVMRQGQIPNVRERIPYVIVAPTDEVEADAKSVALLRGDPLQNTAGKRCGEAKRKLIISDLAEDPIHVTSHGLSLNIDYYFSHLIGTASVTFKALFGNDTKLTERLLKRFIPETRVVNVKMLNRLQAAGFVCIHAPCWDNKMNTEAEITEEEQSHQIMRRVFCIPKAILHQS

| Structure (SMILES) | IC50 (HCMV polymerase; [1]) | IC50 (HSV polymerase; [2]) | IC50 (VZV polymerase; [3]) | also measured |
| --- | --- | --- | --- | --- |
| CN(Cc1cc2c(=O)c(C(=O)NCc3ccc(Cl)cc3)cn(CC(O)CO)c2s1)CC(O)c1cc2ccccc2o1 (racemic) [Example 25, rac-2-(((2-(1-Benzofuran-2-yl)-2-hydroxyethyl)(methyl)amino)methyl)-N-(4-chlorobenzyl)-7-(2,3-dihydroxypropyl)-4-oxo-4,7-dihydrothieno[2,3-b]pyridine-5-carboxamide] | 1800 nM | – | – | – |
| COCCn1cc(C(=O)NCc2ccc(Cl)cc2)c(=O)c2cc(CN(C)CC(O)c3cc4ccccc4o3)sc21 (racemic) [Example 24, rac-2-(((2-(1-Benzofuran-2-yl)-2-hydroxyethyl)(methyl)amino)methyl)-N-(4-chlorobenzyl)-7-(2-methoxyethyl)-4-oxo-4,7-dihydrothieno[2,3-b]pyridine-5-carboxamide] | 310 nM | – | – | melting point: 133 to 140 °C |
| CCCn1cc(C(=O)NCc2ccc(Cl)cc2)c(=O)c2cc(CN(C)C[C@@H](O)c3ccco3)sc21 [Example 32, N-(4-Chlorobenzyl)-2-((((2R)-2-(2-furyl)-2-hydroxyethyl)(methyl)amino)methyl)-4-oxo-7-propyl-4,7-dihydrothieno[2,3-b]pyridine-5-carboxamide] | 180 nM | 740 nM | 220 nM | – |
| CN(Cc1cc2c(=O)c(C(=O)NCc3ccc(Cl)cc3)cn(CCO)c2s1)C[C@@H](O)c1ccco1 [Example 34, N-(4-Chlorobenzyl)-2-((((2R)-2-(2-furyl)-2-hydroxyethyl)(methyl)amino)methyl)-7-(2-hydroxyethyl)-4-oxo-4,7-dihydrothieno[2,3-b]pyridine-5-carboxamide] | 240 nM | 1080 nM | 340 nM | – |
| CN(Cc1cc2c(=O)c(C(=O)NCc3ccc(Cl)cc3)cn(CCO)c2s1)CC(O)c1cc2ccccc2o1 (racemic) [Example 29, rac-2-(((2-(1-Benzofuran-2-yl)-2-hydroxyethyl)(methyl)amino)methyl)-N-(4-chlorobenzyl)-7-(2-hydroxyethyl)-4-oxo-4,7-dihydrothieno[2,3-b]pyridine-5-carboxamide] | 600 nM | – | – | – |
| CN(Cc1cc2c(=O)c(C(=O)NCc3ccc(Cl)cc3)cn(C)c2s1)C[C@@H](O)c1ccn[nH]1 (single isomer, unassigned) [Example 19] | 210 nM | 780 nM | 290 nM | – |
| CN(Cc1cc2c(=O)c(C(=O)NCc3ccc(Cl)cc3)cn(C)c2s1)CC(O)c1cn(C)cn1 (racemic) [Example 9, rac-N-(4-Chlorobenzyl)-2-(((2-hydroxy-2-(1-methyl-1H-imidazol-4-yl)ethyl) (methyl)amino)methyl)-7-methyl-4-oxo-4,7-dihydrothieno[2,3-b]pyridine-5-carboxamide] | 1060 nM | – | – | melting point: 124 to 130 °C |
| Cc1cc(C(O)CN(C)Cc2cc3c(=O)c(C(=O)NCc4ccc(Cl)cc4)cn(C)c3s2)c(C)o1 (racemic) [Example 12, rac-N-(4-Chlorobenzyl)-2-(((2-(2,5-dimethyl-3-furyl)-2-hydroxyethyl)(methyl)-amino)methyl)-7-methyl-4-oxo-4,7-dihydrothieno[2,3-b]pyridine-5-carboxamide] | 280 nM | – | – | melting point: 167 to 172 °C |
| CN(Cc1cc2c(=O)c(C(=O)NCc3ccc(Cl)cc3)cn(CCOCCO)c2s1)C[C@@H](O)c1ccco1 [Example 35, N-(4-Chlorobenzyl)-2-((((2R)-2-(2-furyl)-2-hydroxyethyl)(methyl)amino)methyl)-7-(2-(2-hydroxyethoxy)ethyl)-4-oxo-4,7-dihydrothieno[2,3-b]pyridine-5-carboxamide] | 560 nM | – | – | – |
| COCCn1cc(C(=O)NCc2ccc(Cl)cc2)c(=O)c2cc(CN(C)C[C@@H](O)c3ccco3)sc21 [Example 21, N-(4-Chlorobenzyl)-2-((((2R)-2-(2-furyl)-2-hydroxyethyl)(methyl)amino)methyl)-7-(2-methoxyethyl)-4-oxo-4,7-dihydrothieno[2,3-b]pyridine-5-carboxamide] | 350 nM | – | – | – |
| CN(Cc1cc2c(=O)c(C(=O)NCc3ccc(Cl)cc3)cn(CCCO)c2s1)CC(O)c1cc2ccccc2o1 (racemic) [Example 28, rac-2-(((2-(1-Benzofuran-2-yl)-2-hydroxyethyl)(methyl)amino)methyl)-N-(4-chlorobenzyl)-7-(3-hydroxypropyl)-4-oxo-4,7-dihydrothieno[2,3-b]pyridine-5-carboxamide] | – | – | – | IC50 (HCMV polymerase): 300 nM |
| CCCn1cc(C(=O)NCc2ccc(Cl)cc2)c(=O)c2cc(CN(C)CC(O)c3cc4ccccc4o3)sc21 (racemic) [Example 23, rac-2-(((2-(1-Benzofuran-2-yl)-2-hydroxyethyl)(methyl)amino)methyl)-N-(4-chlorobenzyl)-7-propyl-4-oxo-4,7-dihydrothieno[2,3-b]pyridine-5-carboxamide] | 260 nM | – | – | – |
| CN(Cc1cc2c(=O)c(C(=O)NCc3ccc(Cl)cc3)cn(CCCO)c2s1)C[C@@H](O)c1ccco1 [Example 27, N-(4-Chlorobenzyl)-2-((((2R)-2-(2-furyl)-2-hydroxyethyl)(methyl)amino)methyl)-7-(3-hydroxypropyl)-4-oxo-4,7-dihydrothieno[2,3-b]pyridine-5-carboxamide] | – | – | – | IC50 (HCMV polymerase): 360 nM; IC50 (HSV polymerase): 590 nM; IC50 (VZV polymerase): 280 nM |

Now from value to molecule, other results behind:

| IC50 (HCMV polymerase; [1]) | IC50 (HSV polymerase; [2]) | IC50 (VZV polymerase; [3]) | Structure (SMILES) | also measured |
| --- | --- | --- | --- | --- |
| 20 nM | 80 nM | – | CN(Cc1cc2c(=O)c(C(=O)NCc3ccc(Cl)cc3)cn(C)c2s1)CC(O)c1ccc(Cl)o1 (centres unmarked) [Example 33, N-(4-Chlorobenzyl)-2-(((2-(5-chloro-2-furyl)-2-hydroxyethyl)(methyl)amino)-methyl)-7-methyl-4-oxo-4,7-dihydrothieno[2,3-b]pyridine-5-carboxamide] | – |
| 80 nM | 220 nM | 60 nM | CN(Cc1cc2c(=O)c(C(=O)NCc3ccc(Cl)cc3)cn(C)c2s1)CC(O)c1ccco1 (racemic) [Example 1, rac-N-(4-Chlorobenzyl)-2-(((2-(2-furyl)-2-hydroxyethyl)(methyl)amino)methyl)-7-methyl-4-oxo-4,7-dihydrothieno[2,3-b]pyridine-5-carboxamide] | – |
| 170 nM | 470 nM | 150 nM | CN(Cc1cc2c(=O)c(C(=O)NCc3ccc(Cl)cc3)cn(C)c2s1)CC(O)c1cccs1 (racemic) [Example 6, rac-N-(4-Chlorobenzyl)-2-(((2-hydroxy-2-thien-2-ylethyl)(methyl)amino)methyl)-7-methyl-4-oxo-4,7-dihydrothieno[2,3-b]pyridine-5-carboxamide] | – |
| 150 nM | 540 nM | 330 nM | CN(Cc1cc2c(=O)c(C(=O)NCc3ccc(Cl)cc3)cn(CC(O)CO)c2s1)C[C@@H](O)c1ccco1 (stereo partly drawn) [Example 26, N-(4-Chlorobenzyl)-7-(2,3-dihydroxypropyl)-2-((((2R)-2-(2-furyl)-2-hydroxy-ethyl)(methyl)amino)methyl)-4-oxo-4,7-dihydrothieno[2,3-b]pyridine-5-carboxamide] | – |
| 40 nM | 90 nM | 30 nM | CN(Cc1cc2c(=O)c(C(=O)NCc3ccc(Cl)cc3)cn(C)c2s1)C[C@@H](O)c1ccco1 [Example 2, (+)—N-(4-Chlorobenzyl)-2-((((R)-2-(2-furyl)-2-hydroxyethyl)(methyl)amino)-methyl)-7-methyl-4-oxo-4,7-dihydrothieno [2,3-b]pyridine-5-carboxamide] | – |
| 90 nM | 170 nM | 80 nM | CCn1cc(C(=O)NCc2ccc(Cl)cc2)c(=O)c2cc(CN(C)CC(O)c3cc4ccccc4o3)sc21 (racemic) [Example 22, rac-2-(((2-(1-Benzofuran-2-yl)-2-hydroxyethyl)(methyl)amino)methyl)-N-(4-chlorobenzyl)-7-ethyl-4-oxo-4,7-dihydrothieno[2,3-b]pyridine-5-carboxamide] | – |
| 120 nM | 390 nM | 110 nM | CN(Cc1cc2c(=O)c(C(=O)NCc3ccc(Cl)cc3)cn(C)c2s1)CC(O)c1nc2ccccc2s1 (racemic) [Example 17, rac-2-(((2-(1,3-Benzothiazol-2-yl)-2-hydroxyethyl)(methyl)amino)methyl)-N-(4-chlorobenzyl)-7-methyl-4-oxo-4,7-dihydrothieno[2,3-b]pyridine-5-carboxamide] | – |
